Data set [1] deals with Kpn.2913 (KPC-2, SHV+, clinical). Put plainly: Standard BLI potentiation MIC assay. As to conditions: Klebsiella pneumoniae, read-out: MIC of β-lactam with BLI. It is filed as cell-based. As for the experimental part: (§1) The experimental protocol was performed according to Clinical and Laboratory Standards Institute (CLSI) guidelines with modifications as described below (CLSI guidelines can be derived from the CLSI document M07-A9 published in January 2012: “Methods for Dilution Antimicrobial Susceptibility Tests for Bacteria That Grow Aerobically; Approved Standard-Ninth Edition”).
(§2) To prepare for MIC testing, frozen glycerol stocks of clinical isolates (Klebsiella pneumoniae, Eschericia coli, Enterobacter spp, Citrobacter spp, or Pseudomonas aeruginosa) were used to streak for isolated colonies on rich, non-selective, tryptic soy agar containing 5% sheep's blood (TSAB). Frozen glycerol stocks of laboratory engineered, isogenic E. coli strains, which contain cloned β-lactamase expressing plasmids were used to streak for isolated colonies on rich, selective LB agar supplemented with 25 μg/mL tetracycline to maintain the plasmid. All strains were incubated at 37° C. for 18-24 hrs.
(§3) On the day of testing, primary cultures were started by scraping off 5-10 colonies from the TSAB plates containing clinical strains or the tetracycline supplemented LB plates containing engineered strains. The clinical strain material was suspended in ˜5 mL of cation adjusted Mueller Hinton Broth (CAMHB) in 14 mL culture tubes. The engineered strain material was suspended in CAMHB (supplemented with 25 μg/mL tetracycline) in 14 mL culture tubes. All strains were incubated at 37° C. with aeration (200 rpm) for ˜2 hrs until the optical density at 600 nm (OD600) was ≧0.1.
(§4) The two compound components of the assay were each diluted in CAMHB and added to the 96-well broth microdilution assay plates. 50 μL of the β-lactam was added to each well of the assay plate in 2-fold dilutions with final concentrations ranging from 128 to 0.13 μg/mL. 25 μL of the BLI compound was added to all wells in the broth microdilution plates at a final concentration of 4 μg/mL. Inoculum cultures were prepared by standardizing the primary cultures to OD600=0.1 and then adding 20 μL of the adjusted primary culture per 1 mL CAMHB for clinical strains or CAMHB (supplemented with tetracycline at 100 μg/mL) for engineered strains, so that the final inoculum density was ˜10^5 colony forming units per milliliter. Diluted inoculum cultures were used to inoculate 25 μL per well in 96-well broth microdilution assay plates. The final volume of each well was 100 μL and contained a β-lactam at different concentrations, a BLlcompound at 4 μg/mL concentration, the bacterial culture at an OD600 of approximately 0.001 and when necessary tetracycline at 25 μg/mL.
(§5) Plates were incubated for 18-20 hours at 37° C. with aeration (200 rpm). Following incubation, growth was confirmed visually placing plates over a viewing apparatus (stand with a mirror underneath) and then OD600 was measured using a SpectraMax 340PC384 plate reader (Molecular Devices, Sunnyvale, Calif.). Growth was defined as turbidity that could be detected with the naked eye or achieving minimum OD600 of 0.1. MIC values were defined as the lowest concentration producing no visible turbidity.

Data set [2] has as its system Pae.2885 (AmpC, clinical). The data set can be described thus: Standard BLI potentiation MIC assay. It is filed as cell-based. The conditions noted are these: Pseudomonas aeruginosa, read-out: MIC of β-lactam with BLI. As for the experimental part: as §1, §2, §3, §4, §5
Data set [3] has as its system Eco.2491 (CMY-2, clinical). Put plainly: Standard BLI potentiation MIC assay. The format is cell-based, Eschericia coli. As to conditions: read-out: MIC of β-lactam with BLI. The protocol:
as §1, §2, §3, §4, §5

The subject of a further data set is Eco.2711 (KPC, clinical). The data set can be described thus: Standard BLI potentiation MIC assay. It is filed as cell-based, Eschericia coli. As to conditions: read-out: MIC of β-lactam with BLI. The protocol: as §1, §2, §3, §4, §5
Data set [4] has as its system Eco.2781 (KPC-2, TEM+, clinical). Put plainly: Standard BLI potentiation MIC assay. It is filed as cell-based, Eschericia coli. The conditions noted are these: read-out: MIC of β-lactam with BLI. As for the experimental part: as §1, §2, §3, §4, §5
Data set [5] concerns Eco.2806 (KPC-2, isogenic). The data set can be described thus: Standard BLI potentiation MIC assay. As to conditions: read-out: MIC of β-lactam with BLI. The format is cell-based, Eschericia coli. The protocol:
as §1, §2, §3, §4, §5

Data set [6] concerns Eco.2840 (KPC-4, isogenic). The data set can be described thus: Standard BLI potentiation MIC assay. The format is cell-based, Eschericia coli. The conditions noted are these: read-out: MIC of β-lactam with BLI. The protocol:
as §1, §2, §3, §4, §5

Data set [7] relates to Eco.2843 (DHA-1, isogenic). Put plainly: Standard BLI potentiation MIC assay. The format is cell-based, Eschericia coli. As to conditions: read-out: MIC of β-lactam with BLI. The protocol: as §1, §2, §3, §4, §5
The subject of data set [8] is Eco.2845 (OXA-15, isogenic). Put plainly: Standard BLI potentiation MIC assay. It is filed as cell-based, Eschericia coli. As to conditions: read-out: MIC of β-lactam with BLI. As for the experimental part: as §1, §2, §3, §4, §5
For data set [9], the system named is Eco.2902 (Aba-ADC-33, isogenic). Put plainly: Standard BLI potentiation MIC assay. The format is cell-based, Eschericia coli. The conditions noted are these: read-out: MIC of β-lactam with BLI. As for the experimental part: as §1, §2, §3, §4, §5
A short description of data set [10]: Gravimetric vapour sorption (GVS/DVS), hygroscopicity. It is filed as physicochemical. The conditions noted are these: DVS, 25° C., 0-90% RH; sulfate. As for the experimental part: Sorption isotherms were obtained using a SMS DVS Intrinsic moisture sorption analyser, controlled by DVS Intrinsic Control software v1.0.1.2 (or v 1.0.1.3). The sample temperature was maintained at 25° C. by the instrument controls. The humidity was controlled by mixing streams of dry and wet nitrogen, with a total flow rate of 200 ml/min The relative humidity was measured by a calibrated Rotronic probe (dynamic range of 1.0-100% RH), located near the sample. The weight change, (mass relaxation) of the sample as a function of % RH was constantly monitored by the microbalance (accuracy ±0.005 mg).
Typically 5-20 mg of sample was placed in a tared mesh stainless steel basket under ambient conditions. The sample was loaded and unloaded at 40% RH and 25° C. (typical room conditions). A moisture sorption isotherm was performed as outlined below (2 scans giving 1 complete cycle). The standard isotherm was performed at 25° C. at 10% RH intervals over a 0-90% RH range Data analysis was undertaken in Microsoft Excel using DVS Analysis Suite v6.2 (or 6.1 or 6.0).
The sample was recovered after completion of the isotherm and re-analysed by XRPD.

A short description of data set [11]: Solid form stability at ambient conditions, XRPD. The format is physicochemical. As for the experimental part: X-Ray Powder Diffraction patterns were collected on a Bruker D8 diffractometer using Cu Kα radiation (40 kV, 40 mA), 0-20 goniometer, and divergence of V4 and receiving slits, a Ge monochromator and a Lynxeye detector. The instrument is performance checked using a certified Corundum standard (NIST 1976). The software used for data collection was Diffrac Plus XRD Commander v2.6.1 and the data were analysed and presented using Diffrac Plus EVA v13.0.0.2 or v15.0.0.0. Samples were run under ambient conditions as flat plate specimens using powder as received. The sample was gently packed into a cavity cut into polished, zero-background (510) silicon wafer. The sample was rotated in its own plane during analysis. The details of the data collection are: angular range: 2 to 42 °2θ; step size: 0.05 °2θ; collection time: 0.5 s/step. Amorphous material (˜60 mg) was generated as in Procedure 1. The amorphous material was suspended in different solvent systems (3 mL) at 50° C. A sample was withdrawn after 3 h and 24 h. The final product was filtered after 48 h and analysed by XRPD. The solids isolated were re-analysed again by XRPD after few days at ambient conditions (˜25° C. and ˜40% RH).

“Also recorded” adds a separate entry of the source.

Consider `O=C1N2C[C@@H](CC[C@H]2c2nnco2)N1OS(=O)(=O)[O-].[Na+]` [Hydrate 1, sodium (2S,5R)-2-(1,3,4-oxadiazol-2-yl)-7-oxo-1,6-diazabicyclo[3.2.1]octan-6-yl sulfate], for which the MIC fell in the range of 0.25 to 0.5 µg/mL in data set [1]; 0.25 to 0.5 µg/mL in data set [2]; 0.25 to 0.5 µg/mL in data set [3]; 0.25 to 0.5 µg/mL in the data set on Eco.2711 (KPC, clinical); 0.25 to 0.5 µg/mL in [4]; 0.25 to 0.5 µg/mL in [5]. The MIC was in the range of 1 to 2 µg/mL in data set [6], 0.25 to 0.5 µg/mL in data set [7], 1 to 2 µg/mL in data set [8] and 1 to 2 µg/mL in data set [9]. In data set [10], the “hygroscopicity relative to the amorphous form” value is given as “significantly less hygroscopic than the amorphous form; also recorded: low hygroscopicity relative to amorphous”. Further, the “change of crystal form on storage” value in [11] (25° C. at 40% relative humidity over 2 days (FIG. 2)) was “little to no change”. In [11] (ambient conditions (25° C. and 40% RH)), the “relative stability among the crystalline forms” value is listed as “most stable crystalline form”. For the same molecule, the “stability of the form (Summary of Forms, Description)” value in data set [11] (sulfate) is given as “Stable tri-hydrate”.

These data come from patent publication US9120795B2, “Crystalline form of a β-lactamase inhibitor” (Cubist Pharmaceuticals, Inc., priority 2013, dated 2015).
